For one molecule, remaining binding results are on record in paper PMC10174618, “Monoterpenoid aryl hydrocarbon receptor allosteric antagonists protect against ultraviolet skin damage in female mice” (Nature Communications, 2023).

Common to all, as to experiment: biochemical
What all share (design): KINOMEscan scanMAX active site-directed competition binding assay, percent of control, 468 kinases
Holding throughout (settings): competition binding, percent of control

The target of assay [1] is T1, ABL1(H396P)-nonphosphorylated (Homo sapiens, UniProt P00519, H396P).
T1 construct: nonphosphorylated
A digest of the protocol:
(§1)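 Single-concentration screen (100 μM S-carvone) in a competition binding panel of 468 human kinases (KINOMEscan scanMAX); results given as percent of control, hit cutoff 35%.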

Assay [2] addresses T2, ABL1(Q252H)-nonphosphorylated (Homo sapiens, UniProt P00519, Q252H).
T2 construct: nonphosphorylated
A digest of the protocol:
as §1

Assay [3] concerns the target ACVR1B (Homo sapiens, UniProt P36896). A digest of the protocol:
as §1

Assay [4] addresses T3, CDC2L1 (Homo sapiens, UniProt P21127).
T3 construct: gene CDK11B
A digest of the protocol:
as §1

In assay [5] the target is DDR2 (Homo sapiens, UniProt Q16832). A digest of the protocol:
as §1

The target of assay [6] is EGFR(L747-E749del, A750P) (Homo sapiens, UniProt P00533, A750P/DEL747-749). A digest of the protocol:
as §1

In assay [7] the target is FLT3 (Homo sapiens, UniProt P36888). A digest of the protocol:
as §1

Assay [8] addresses MAPKAPK5 (Homo sapiens, UniProt Q8IW41). A digest of the protocol:
as §1

The target of assay [9] is MET(M1250T) (Homo sapiens, UniProt P08581, M1250T). A digest of the protocol:
as §1

For assay [10], the target named is T4, MST1 (Homo sapiens, UniProt Q13043).
T4 construct: gene STK4
A digest of the protocol:
as §1

Assay [11] concerns the target T5, NIM1 (Homo sapiens, UniProt Q8IY84).
T5 construct: gene NIM1K
A digest of the protocol: as §1

Assay [12] has as its target PIK3CA(H1047Y) (Homo sapiens, UniProt P42336, H1047Y). A digest of the protocol: as §1
For assay [13], the target named is PLK1 (Homo sapiens, UniProt P53350). A digest of the protocol: as §1
In assay [14] the target is PRKCQ (Homo sapiens, UniProt Q04759). A digest of the protocol:
as §1

Assay [15] deals with T6, PRKR (Homo sapiens, UniProt P19525).
T6 construct: gene EIF2AK2
A digest of the protocol: as §1

Assay [16] addresses RIPK4 (Homo sapiens, UniProt P57078). A digest of the protocol:
as §1

The target of assay [17] is T7, RSK3(Kin.Dom.1-N-terminal) (Homo sapiens, UniProt Q15349).
T7 construct: gene RPS6KA2; Kin.Dom.1-N-terminal
A digest of the protocol: as §1

The target of assay [18] is T8, RSK4(Kin.Dom.1-N-terminal) (Homo sapiens, UniProt Q9UK32).
T8 construct: gene RPS6KA6; Kin.Dom.1-N-terminal
A digest of the protocol:
as §1

Assay [19] concerns the target TIE1 (Homo sapiens, UniProt P35590). A digest of the protocol:
as §1

Assay [20] addresses TSSK3 (Homo sapiens, UniProt Q96PN8). A digest of the protocol: as §1

The structures appear in SMILES notation.

T7 sequence (Q15349 whole entry): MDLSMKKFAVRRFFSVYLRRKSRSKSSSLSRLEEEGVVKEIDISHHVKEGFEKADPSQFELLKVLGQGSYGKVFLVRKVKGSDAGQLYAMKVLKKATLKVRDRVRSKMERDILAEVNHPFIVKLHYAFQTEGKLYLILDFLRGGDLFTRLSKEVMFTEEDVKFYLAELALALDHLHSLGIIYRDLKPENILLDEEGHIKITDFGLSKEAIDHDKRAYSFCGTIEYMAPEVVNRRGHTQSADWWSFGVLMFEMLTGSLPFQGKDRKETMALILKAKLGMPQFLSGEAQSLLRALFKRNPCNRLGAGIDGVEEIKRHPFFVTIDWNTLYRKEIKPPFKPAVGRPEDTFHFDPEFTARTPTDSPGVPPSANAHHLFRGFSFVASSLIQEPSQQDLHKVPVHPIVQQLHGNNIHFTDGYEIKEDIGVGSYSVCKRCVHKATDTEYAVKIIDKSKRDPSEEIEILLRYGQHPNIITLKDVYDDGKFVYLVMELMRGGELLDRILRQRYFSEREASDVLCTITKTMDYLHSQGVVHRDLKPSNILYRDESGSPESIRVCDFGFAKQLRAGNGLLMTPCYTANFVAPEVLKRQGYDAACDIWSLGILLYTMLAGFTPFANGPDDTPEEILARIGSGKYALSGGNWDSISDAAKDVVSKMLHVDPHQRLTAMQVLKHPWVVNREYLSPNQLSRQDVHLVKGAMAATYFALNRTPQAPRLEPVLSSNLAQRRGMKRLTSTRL
Chain of DDR2 (Q16832 whole entry): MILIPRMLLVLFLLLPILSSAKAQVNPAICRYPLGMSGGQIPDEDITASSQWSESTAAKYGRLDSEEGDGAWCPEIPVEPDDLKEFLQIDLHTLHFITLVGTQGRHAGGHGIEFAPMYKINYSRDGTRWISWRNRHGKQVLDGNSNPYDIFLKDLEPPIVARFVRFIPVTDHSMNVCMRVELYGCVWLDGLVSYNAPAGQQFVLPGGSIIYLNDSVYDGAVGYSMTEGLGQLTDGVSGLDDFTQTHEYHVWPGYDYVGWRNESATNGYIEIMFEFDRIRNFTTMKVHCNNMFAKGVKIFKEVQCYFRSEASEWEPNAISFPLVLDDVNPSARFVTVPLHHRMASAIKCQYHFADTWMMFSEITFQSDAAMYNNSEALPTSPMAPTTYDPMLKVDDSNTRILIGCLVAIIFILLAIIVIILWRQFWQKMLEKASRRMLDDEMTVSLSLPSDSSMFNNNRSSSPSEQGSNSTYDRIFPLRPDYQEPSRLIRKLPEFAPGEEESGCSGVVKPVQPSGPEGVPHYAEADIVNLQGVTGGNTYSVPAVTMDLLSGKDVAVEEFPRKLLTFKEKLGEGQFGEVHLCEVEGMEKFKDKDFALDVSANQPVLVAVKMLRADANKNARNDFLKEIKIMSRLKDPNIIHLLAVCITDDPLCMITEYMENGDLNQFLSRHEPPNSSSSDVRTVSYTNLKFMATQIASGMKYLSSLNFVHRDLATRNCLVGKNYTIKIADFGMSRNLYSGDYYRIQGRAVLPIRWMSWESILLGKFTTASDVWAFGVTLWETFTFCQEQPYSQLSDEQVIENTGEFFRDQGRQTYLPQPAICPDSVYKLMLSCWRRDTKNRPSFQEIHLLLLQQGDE
Chain of RIPK4 (P57078 whole entry): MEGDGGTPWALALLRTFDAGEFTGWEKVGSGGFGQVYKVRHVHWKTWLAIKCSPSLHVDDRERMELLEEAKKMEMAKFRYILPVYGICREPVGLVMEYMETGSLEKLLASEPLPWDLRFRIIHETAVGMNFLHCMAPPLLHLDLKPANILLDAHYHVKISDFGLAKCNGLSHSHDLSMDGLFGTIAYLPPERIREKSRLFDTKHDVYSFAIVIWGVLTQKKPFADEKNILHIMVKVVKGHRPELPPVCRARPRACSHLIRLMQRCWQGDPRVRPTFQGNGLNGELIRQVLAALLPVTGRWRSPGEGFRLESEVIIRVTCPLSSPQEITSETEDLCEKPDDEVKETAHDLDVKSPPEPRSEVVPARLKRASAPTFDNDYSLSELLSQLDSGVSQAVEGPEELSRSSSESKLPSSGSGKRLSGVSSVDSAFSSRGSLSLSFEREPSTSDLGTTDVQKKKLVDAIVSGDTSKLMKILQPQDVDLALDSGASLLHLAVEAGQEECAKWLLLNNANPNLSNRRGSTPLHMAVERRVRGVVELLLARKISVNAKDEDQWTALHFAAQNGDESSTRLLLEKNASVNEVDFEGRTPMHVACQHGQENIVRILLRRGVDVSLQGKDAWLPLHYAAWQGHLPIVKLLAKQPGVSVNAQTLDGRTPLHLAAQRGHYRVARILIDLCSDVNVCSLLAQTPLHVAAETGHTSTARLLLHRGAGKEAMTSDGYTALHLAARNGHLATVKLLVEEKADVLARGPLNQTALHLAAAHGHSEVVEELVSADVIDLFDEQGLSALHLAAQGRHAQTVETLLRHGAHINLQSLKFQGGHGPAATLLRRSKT
Chain of EGFR(L747-E749del, A750P) (P00533 with tags, fused parts or gaps DEL747-749/A750P): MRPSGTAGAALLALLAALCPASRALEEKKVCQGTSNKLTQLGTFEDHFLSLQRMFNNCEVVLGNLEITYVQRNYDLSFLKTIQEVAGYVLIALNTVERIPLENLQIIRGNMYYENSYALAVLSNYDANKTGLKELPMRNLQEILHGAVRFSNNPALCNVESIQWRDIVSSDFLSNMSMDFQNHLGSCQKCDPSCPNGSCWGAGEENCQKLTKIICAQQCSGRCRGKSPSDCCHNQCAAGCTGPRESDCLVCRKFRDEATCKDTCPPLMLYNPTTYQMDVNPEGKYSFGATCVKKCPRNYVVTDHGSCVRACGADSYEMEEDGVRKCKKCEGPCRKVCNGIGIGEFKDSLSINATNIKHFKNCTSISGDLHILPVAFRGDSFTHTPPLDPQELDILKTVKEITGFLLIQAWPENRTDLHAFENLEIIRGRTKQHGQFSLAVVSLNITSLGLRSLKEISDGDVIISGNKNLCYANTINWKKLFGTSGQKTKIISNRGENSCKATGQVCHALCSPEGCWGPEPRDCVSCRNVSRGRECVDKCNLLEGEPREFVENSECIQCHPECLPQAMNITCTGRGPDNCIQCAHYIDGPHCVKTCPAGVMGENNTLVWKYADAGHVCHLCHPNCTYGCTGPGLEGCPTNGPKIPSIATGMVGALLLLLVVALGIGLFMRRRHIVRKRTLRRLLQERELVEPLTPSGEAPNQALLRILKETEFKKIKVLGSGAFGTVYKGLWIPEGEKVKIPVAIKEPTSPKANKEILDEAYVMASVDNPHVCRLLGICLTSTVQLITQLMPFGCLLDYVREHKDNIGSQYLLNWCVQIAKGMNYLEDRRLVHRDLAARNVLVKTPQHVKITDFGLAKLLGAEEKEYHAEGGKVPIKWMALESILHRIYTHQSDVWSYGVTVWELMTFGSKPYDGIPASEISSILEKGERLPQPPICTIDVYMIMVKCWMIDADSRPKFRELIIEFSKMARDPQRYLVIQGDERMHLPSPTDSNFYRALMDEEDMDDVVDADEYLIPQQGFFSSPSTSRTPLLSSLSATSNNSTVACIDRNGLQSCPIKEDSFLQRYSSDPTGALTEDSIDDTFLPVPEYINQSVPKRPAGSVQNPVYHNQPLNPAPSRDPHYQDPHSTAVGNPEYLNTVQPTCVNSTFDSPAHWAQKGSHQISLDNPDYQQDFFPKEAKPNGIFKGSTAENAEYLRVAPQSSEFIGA
T5 sequence (Q8IY84 whole entry): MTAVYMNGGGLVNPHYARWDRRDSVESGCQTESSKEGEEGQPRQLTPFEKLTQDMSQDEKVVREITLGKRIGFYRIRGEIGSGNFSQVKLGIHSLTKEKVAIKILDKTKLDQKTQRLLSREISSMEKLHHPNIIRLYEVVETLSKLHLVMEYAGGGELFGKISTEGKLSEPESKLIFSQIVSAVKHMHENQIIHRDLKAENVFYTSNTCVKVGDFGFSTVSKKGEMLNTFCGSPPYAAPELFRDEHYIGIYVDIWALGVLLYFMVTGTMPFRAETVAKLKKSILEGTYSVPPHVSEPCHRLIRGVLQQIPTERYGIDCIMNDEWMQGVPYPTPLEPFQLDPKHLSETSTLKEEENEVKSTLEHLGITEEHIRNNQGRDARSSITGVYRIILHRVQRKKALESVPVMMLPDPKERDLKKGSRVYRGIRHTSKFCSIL
T8 sequence (Q9UK32 whole entry): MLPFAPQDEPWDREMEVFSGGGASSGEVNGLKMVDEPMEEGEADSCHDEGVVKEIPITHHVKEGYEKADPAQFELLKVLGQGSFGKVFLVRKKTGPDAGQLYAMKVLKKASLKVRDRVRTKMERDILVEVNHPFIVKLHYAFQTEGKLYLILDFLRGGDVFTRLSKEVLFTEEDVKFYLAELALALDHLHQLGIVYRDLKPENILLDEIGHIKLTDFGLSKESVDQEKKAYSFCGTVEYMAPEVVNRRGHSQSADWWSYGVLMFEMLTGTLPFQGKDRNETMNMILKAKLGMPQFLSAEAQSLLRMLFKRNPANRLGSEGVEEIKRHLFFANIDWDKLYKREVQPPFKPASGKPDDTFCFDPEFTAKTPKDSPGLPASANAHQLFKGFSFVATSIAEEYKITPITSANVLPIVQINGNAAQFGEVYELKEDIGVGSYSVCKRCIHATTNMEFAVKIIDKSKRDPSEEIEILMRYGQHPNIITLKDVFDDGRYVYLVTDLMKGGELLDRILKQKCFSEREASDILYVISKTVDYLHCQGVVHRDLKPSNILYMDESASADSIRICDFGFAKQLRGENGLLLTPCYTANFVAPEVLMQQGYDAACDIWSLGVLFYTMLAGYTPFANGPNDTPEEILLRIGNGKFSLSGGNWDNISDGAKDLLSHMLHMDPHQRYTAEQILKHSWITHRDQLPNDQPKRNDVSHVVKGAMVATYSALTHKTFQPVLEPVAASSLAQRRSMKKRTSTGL
Chain of TSSK3 (Q96PN8 whole entry): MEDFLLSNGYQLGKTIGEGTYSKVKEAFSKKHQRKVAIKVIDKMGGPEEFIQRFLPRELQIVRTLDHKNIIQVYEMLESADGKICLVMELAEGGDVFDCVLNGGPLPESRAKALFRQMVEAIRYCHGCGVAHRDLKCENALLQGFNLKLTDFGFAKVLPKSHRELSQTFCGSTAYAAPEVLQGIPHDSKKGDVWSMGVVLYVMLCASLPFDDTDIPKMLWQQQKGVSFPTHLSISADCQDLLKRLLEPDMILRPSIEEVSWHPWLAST

On to `C=C(C)[C@H]1CC=C(C)C(=O)C1` [S-carvone], for which the remaining binding at 100 µM is 82% in assay [1]; 66% in assay [2]; 98% in assay [3]; 90% in assay [4]; 88% in assay [5]; 86% in [6]. Moreover, the remaining binding at 100 µM in [7] came to 71%; in assay [8], 87%; in assay [9] it was 73%; in [10] it was 81%; in assay [11] it was 65%; in assay [12], 92%. Also, the remaining binding at 100 µM in assay [13] stood at 68%; in assay [14], 75%; in assay [15], 74%; in assay [16] it was 64%; in assay [17], 94%; in [18], 63%. Moreover, the remaining binding at 100 µM is 89% in assay [19] and 100% in [20].
